Experimental data reported in patent US20210255193A1, “LYSINE REACTIVE PROBES AND USES THEREOF” (The Scripps Research Institute, priority 2017, published 2021).

Assays:
Test in all cases: competitive isoTOP-ABPP
Type in all cases: binding
Conditions in all cases: 50 uM, in vitro
[1] = biological target: T1, TPD52L2 Tumor protein D54 (Homo sapiens, UniProt O43399); design: key to isoTOP-ABPP reactivity ratio at lysine O43399_K90: R = MS1 peak area ratio, DMSO (heavy) / compound-treated (light)
T1 construct: isoTOP-ABPP experiments performed in cell lysates (in vitro); endogenous in cells; host or cells: MDA-MB-231 soluble lysate
Experimental: (§1) In vitro covalent fragment treatment for isoTOP-ABPP. All compounds were made up as solutions in DMSO (100×) and were used at a final concentration of 50 μM for activated esters and 100 μM for guanidinylating agents. For each profiling sample, 0.5 ml of lysate was treated with 5 μl of the 100× compound stock solution or 5 μl of DMSO. Samples were treated with activated esters for
(§2) STP-alkyne labeling and click chemistry. For concentration-dependent reactivity measurements by isoTOP-ABPP, 0.5 ml proteome aliquots were treated at ambient temperature with 1 mM STP-alkyne 1 (5 μl of 100 mM stock in DMSO) and 0.1 mM STP alkyne 1 (5 μl of 10 mM stock in DMSO), respectively. For competitive isoTOP-ABPP, after in vitro fragment treatment (detailed above), the samples were labeled for 1 h at ambient temperature with 0.1 mM STP-alkyne 1 (5 μl of 10 mM stock in DMSO). Samples were conjugated by copper-mediated azide-alkyne cycloaddition (CuAAC) to either the light (1 mM STP-alkyne or fragment treated) or heavy (0.1 mM STP-alkyne or DMSO treated) TEV tags (10 μl of 5 mM stocks in DMSO, final concentration=100 μM) using tris(2-carboxyethyl)phosphine hydrochloride
(§3) R value calculation and processing. The ratios of light and heavy MS1 peaks for each unique peptide were quantified with a CIMAGE software using default parameters (3 MS1 acquisitions per peak and signal to noise threshold set to 2.5). For reactivity measurements by isoTOP-ABPP, the R value was calculated from the ratio of MS1 peak areas, comparing the 1 mM STP alkyne sample (light TEV tag) with the 0.1 mM STP alkyne sample (heavy TEV tag). For competitive isoTOP-ABPP, the R value was calculated from the ratio of MS1 peak areas, comparing the DMSO treated sample (heavy TEV tag) with the compound treated sample (light TEV tag). […] Ratios for unique peptide entries are calculated for each experiment; overlapping peptides with the same modified lysine (for example, different charge states, MudPIT chromatographic steps or tryptic termini) are grouped together and the median ratio is reported as the final ratio (R). The peptide ratios reported by CIMAGE were further filtered to ensure the removal or correction of low-quality ratios in each individual data set. The quality filters applied were the following: removal of half tryptic peptides; for ratios with high standard deviations from the median (90% of the median or above) the lowest ratio was taken instead of the median; removal of peptides with R=20 and only a single MS2 event triggered during the elution of the parent ion; manual annotation of all the peptides with ratios of 20, removing any peptides with low quality elution profiles that remained after the previous curation steps (only done for competitive isoTOP-ABPP).
(§4) Cross-data processing for fragment screening. For compound treated samples, biological replicates of the same condition were averaged, if the standard deviation was below 60% of the mean; otherwise, for lysines with at least one R value <4 for a particular compound, the lowest value of the ratio set was taken. For lysines, where all R values for a particular compound were ≥4, the average was reported. For peptides containing several possible modified lysines, the lysine with the highest number of quantification events was used for analysis and the remaining, redundant peptides were reported as alternative modification sites. Peptides included in the aggregate dataset (those used for further bioinformatics and statistical analyses) were required to have been quantified in 2 experiments for competitive isoTOP-ABPP. Lysines were categorized as liganded, if they had at least one ratio R≥4 (hit fragments). For liganded lysines with R=20 for all liganding events, lysines were required to have been quantified with R=20 in two separate experiments and were further required to have been quantified with R<20 in one additional experiment.

HK1 Hexokinase-1 = biological target: T2, HK1 Hexokinase-1 (Homo sapiens, UniProt P19367); design: key to isoTOP-ABPP reactivity ratio at lysine P19367_K510: R = MS1 peak area ratio, DMSO (heavy) / compound-treated (light)
T2 construct: isoTOP-ABPP experiments performed in cell lysates (in vitro); endogenous in cells; host or cells: soluble proteome of human cancer cell lines (MDA-MB-231; Ramos and Jurkat also prepared)
T2 sequence (P19367 1-917): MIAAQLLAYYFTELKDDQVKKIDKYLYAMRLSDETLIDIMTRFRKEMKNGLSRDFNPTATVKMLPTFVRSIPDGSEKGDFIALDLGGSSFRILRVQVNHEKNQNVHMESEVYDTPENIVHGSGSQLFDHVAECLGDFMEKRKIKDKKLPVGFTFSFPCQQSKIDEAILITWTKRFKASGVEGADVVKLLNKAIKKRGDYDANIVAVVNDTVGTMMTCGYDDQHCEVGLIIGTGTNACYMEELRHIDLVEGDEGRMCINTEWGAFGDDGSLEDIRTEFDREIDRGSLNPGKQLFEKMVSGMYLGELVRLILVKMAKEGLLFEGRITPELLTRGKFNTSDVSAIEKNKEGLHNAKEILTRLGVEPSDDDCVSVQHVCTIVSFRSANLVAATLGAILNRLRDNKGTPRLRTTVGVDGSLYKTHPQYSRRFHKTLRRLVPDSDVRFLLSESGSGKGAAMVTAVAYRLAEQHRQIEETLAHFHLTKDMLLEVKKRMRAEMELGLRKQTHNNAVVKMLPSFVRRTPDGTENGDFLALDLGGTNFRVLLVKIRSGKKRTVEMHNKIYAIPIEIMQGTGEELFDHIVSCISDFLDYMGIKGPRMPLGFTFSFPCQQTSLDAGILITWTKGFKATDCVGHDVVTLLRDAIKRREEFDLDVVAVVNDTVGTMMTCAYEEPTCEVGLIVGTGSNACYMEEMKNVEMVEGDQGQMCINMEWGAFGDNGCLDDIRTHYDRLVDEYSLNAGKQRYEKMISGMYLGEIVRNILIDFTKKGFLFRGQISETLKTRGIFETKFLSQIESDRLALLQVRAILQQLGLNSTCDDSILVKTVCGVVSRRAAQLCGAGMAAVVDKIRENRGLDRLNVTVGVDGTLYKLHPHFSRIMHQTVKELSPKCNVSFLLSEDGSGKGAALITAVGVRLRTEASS
Experimental: as §1, §2, §3, §4

[2] = biological target: T3, TPMT Thiopurine S-methyltransferase (Homo sapiens, UniProt P51580); design: key to isoTOP-ABPP reactivity ratio at lysine P51580_K32: R = MS1 peak area ratio, DMSO (heavy) / compound-treated (light)
T3 construct: isoTOP-ABPP experiments performed in cell lysates (in vitro); endogenous in cells; host or cells: soluble proteome of human cancer cell lines (MDA-MB-231; Ramos and Jurkat also prepared)
T3 sequence (P51580 1-245): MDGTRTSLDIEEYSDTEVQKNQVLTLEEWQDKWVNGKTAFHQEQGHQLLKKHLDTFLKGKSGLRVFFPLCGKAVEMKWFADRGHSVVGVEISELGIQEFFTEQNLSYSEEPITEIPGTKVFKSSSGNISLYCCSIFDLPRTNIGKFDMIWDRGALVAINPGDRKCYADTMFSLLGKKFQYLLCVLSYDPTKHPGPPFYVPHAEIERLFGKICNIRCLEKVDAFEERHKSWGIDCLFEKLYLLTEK
Experimental: as §1, §2, §3, §4

T1 sequence (O43399 whole entry): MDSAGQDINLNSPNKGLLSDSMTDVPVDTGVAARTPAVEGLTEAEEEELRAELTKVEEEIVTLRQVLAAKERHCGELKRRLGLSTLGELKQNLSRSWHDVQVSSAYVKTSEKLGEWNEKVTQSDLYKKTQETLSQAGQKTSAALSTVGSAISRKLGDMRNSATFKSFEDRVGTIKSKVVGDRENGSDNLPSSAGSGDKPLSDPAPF

Row | Structure (SMILES) | isoTOP-ABPP reactivity ratio at lysine O43399_K90 ([1]; 231 sol) | isoTOP-ABPP reactivity ratio at lysine P19367_K510 (HK1 Hexokinase-1; 231 sol) | isoTOP-ABPP reactivity ratio at lysine P51580_K32 ([2]; 231 sol) | further results
1 | O=C(Oc1c(F)c(F)c(F)c(F)c1F)c1ccc2ccccc2n1 [fragment 25, Pentafluorophenyl quinoline-2-carboxylate] | 1.5 | 1.2 | 2.9 | 
2 | Cn1cc(CC(=O)Oc2ccc([N+](=O)[O-])cc2[N+](=O)[O-])c2ccccc21 [fragment 32, 2,4-Dinitrophenyl 2-(1-methyl-1H-indol-3-yl)acetate] | 2.7 | 8.6 | 2.5 | 
3 | COc1cc(CCC(=O)Oc2c(F)c(F)c(F)c(F)c2F)cc(OC)c1OC [fragment 23, Pentafluorophenyl 3-(3,4,5-trimethoxyphenyl)propanoate] |  |  |  | R value (DMSO/fragment) for probe 1 labeling ([1]; O43399_K90, 231 sol): 1.5; R value (DMSO/fragment) for probe 1 labeling (HK1 Hexokinase-1; P19367_K510, 231 sol): 2.0; R value (DMSO/fragment) for probe 1 labeling ([2]; P51580_K32, 231 sol): 6.4
4 | O=C(Oc1ccc([N+](=O)[O-])cc1[N+](=O)[O-])c1ccc(Oc2ccccc2)cc1 [fragment 39, 2,4-Dinitrophenyl 4-phenoxybenzoate] |  |  |  | isoTOP-ABPP ratio (R) at liganded lysine O43399_K90 ([1]; sol, 231): 1.3; isoTOP-ABPP ratio (R) at liganded lysine P19367_K510 (HK1 Hexokinase-1; sol, 231): 0.9; isoTOP-ABPP ratio (R) at liganded lysine P51580_K32 ([2]; sol, 231): 1.0
